US11472791B2 (Incyte Corporation, priority 2019, dated 2022)

Biological target: CDK2/Cyclin E1 (Homo sapiens (Human), UniProt P24941)
Test: CDK2/Cyclin E1 HTRF enzyme activity assay
Type: biochemical
Details: 1 mM ATP
Experimental: Assays are conducted in white 384-well polystyrene plates in a final reaction volume of 8 μL. […] HTRF signals are read after 1 hour at room temperature on a PHERAstar FS plate reader (BMG Labtech). Data is analyzed with IDBS XLFit and GraphPad Prism 5.0 software using a three or four parameter dose response curve to determine IC50 for each compound.

SMILES	IC50 [nM]
CCN1CCN(Cc2ccc(-n3cc(-c4nc(NC5CCN(S(=O)(=O)c6cn(C)cn6)CC5)ncc4Cl)cn3)c(C)n2)CC1 [Example 250, 5-Chloro-4-(1-(6-((4-ethylpiperazin-1-yl)methyl)-2-methylpyridin-3-yl)-1H-pyrazol-4-yl)-N-(1-((1-methyl-1H-imidazol-4-yl)sulfonyl)piperidin-4-yl)pyrimidin-2-amine]	< 50
CNCc1ccc(-n2cc(-c3nc(N[C@H]4CCN(S(=O)(=O)C5CC5)C[C@H]4F)ncc3C#N)cn2)c(Cl)c1 [Example 120, 4-(1-(2-Chloro-4-((methylamino)methyl)phenyl)-1H-pyrazol-4-yl)-2-(((3R,4S)-1-(cyclopropylsulfonyl)-3-fluoropiperidin-4-yl)amino)pyrimidine-5-carbonitrile]	< 50
CNCc1ccc(-n2cc(-c3nc(N[C@H]4CCN(S(C)(=O)=O)C[C@H]4F)ncc3C#N)cn2)c(Cl)c1 [Example 116, 4-(1-(2-Chloro-4-((methylamino)methyl)phenyl)-1H-pyrazol-4-yl)-2-(((3R,4S)-3-fluoro-1-(methylsulfonyl)piperidin-4-yl)amino)pyrimidine-5-carbonitrile]	< 50
Cc1nc(CN[C@]2(C)C[C@H](O)C2)ccc1-n1cc(-c2nc(NC3CCN(S(C)(=O)=O)CC3)ncc2C#N)cn1 [Example 265]	< 50
CS(=O)(=O)N1CCC(Nc2ncc(C#N)c(-c3cnn(-c4ccc(CN[C@H]5CC[C@](C)(O)CC5)cc4Cl)c3)n2)CC1 [Example 174, 4-(1-(2-Chloro-4-((((1r,4r)-4-hydroxy-4-methylcyclohexyl)amino)methyl)phenyl)-1H-pyrazol-4-yl)-2-((1-(methylsulfonyl)piperidin-4-yl)amino)pyrimidine-5-carbonitrile]	< 50
CNCc1ccc(-n2cc(-c3nc(N[C@H]4CCN(S(=O)(=O)CCCC#N)C[C@H]4F)ncc3C#N)cn2)c(Cl)c1 [Example 122, 4-(1-(2-Chloro-4-((methylamino)methyl)phenyl)-1H-pyrazol-4-yl)-2-(((3R,4S)-1-((3-cyanopropyl)sulfonyl)-3-fluoropiperidin-4-yl)amino)pyrimidine-5-carbonitrile]	< 50
Cc1nc(CNC(C)(C)C)ccc1-n1cc(-c2nc(NC3CCN(S(C)(=O)=O)CC3)ncc2C#N)cn1 [Example 262, 4-(1-(6-((tert-Butylamino)methyl)-2-methylpyridin-3-yl)-1H-pyrazol-4-yl)-2-((1-(methylsulfonyl)piperidin-4-yl)amino)pyrimidine-5-carbonitrile]	< 50
N#Cc1cnc(N[C@H]2CCN(S(=O)(=O)C3CC3)C[C@H]2F)nc1-c1cnn(-c2ccc(CNCC3(O)CC3)cc2Cl)c1 [Example 156, 4-(1-(2-Chloro-4-((((1-hydroxycyclopropyl)methyl)amino)methyl)phenyl)-1H-pyrazol-4-yl)-2-(((3R,4S)-1-(cyclopropylsulfonyl)-3-fluoropiperidin-4-yl)amino)pyrimidine-5-carbonitrile]	< 50
CS(=O)(=O)N1CCC(Nc2ncc(Cl)c(-c3cnn(C4CCOCC4)c3)n2)CC1 [Example 22, 5-Chloro-N-(1-(methylsulfonyl)piperidin-4-yl)-4-(1-(tetrahydro-2H-pyran-4-yl)-1H-pyrazol-4-yl)pyrimidin-2-amine]	< 50
CCN(CC)C1CCC(S(=O)(=O)N2CCC(Nc3ncc(C(F)(F)F)c(-c4cnn(CC(C)(C)O)c4)n3)CC2)CC1 (single isomer, unassigned) [89 (peak 2), 1-(4-(2-((1-((4-(Diethylamino)cyclohexyl)sulfonyl)piperidin-4-yl)amino)-5-(trifluoromethyl)pyrimidin-4-yl)-1H-pyrazol-1-yl)-2-methylpropan-2-ol]	< 50
CC(C)(O)Cn1cc(-c2nc(NC3CCN(S(=O)(=O)CCCCN4CCCCC4)CC3)ncc2C(F)(F)F)cn1 [Example 81, 2-Methyl-1-(4-(2-((1-((4-(piperidin-1-yl)butyl)sulfonyl)piperidin-4-yl)amino)-5-(trifluoromethyl)pyrimidin-4-yl)-1H-pyrazol-1-yl)propan-2-ol]	< 50
CS(=O)(=O)N1CCC(Nc2ncc(C#N)c(-c3cnn(-c4ccc(CN[C@@H]5CCCOC5)cc4Cl)c3)n2)CC1 [Example 195, (R)-4-(1-(2-Chloro-4-(((tetrahydro-2H-pyran-3-yl)amino)methyl)phenyl)-1H-pyrazol-4-yl)-2-((1-(methylsulfonyl)piperidin-4-yl)amino)pyrimidine-5-carbonitrile]	< 50
CCn1cnc(S(=O)(=O)N2CCC(Nc3ncc(C(F)(F)F)c(-c4cnn(C5CCOCC5)c4)n3)CC2)c1 [Example 24, N-(1-((1-Ethyl-1H-imidazol-4-yl)sulfonyl)piperidin-4-yl)-4-(1-(tetrahydro-2H-pyran-4-yl)-1H-pyrazol-4-yl)-5-(trifluoromethyl)pyrimidin-2-amine]	< 50
CN1CCN(CCCS(=O)(=O)N2CCC(Nc3ncc(C(F)(F)F)c(-c4cnn(CC(C)(C)O)c4)n3)CC2)CC1 [Example 68, 2-Methyl-1-(4-(2-((1-((3-(4-methylpiperazin-1-yl)propyl)sulfonyl)piperidin-4-yl)amino)-5-(trifluoromethyl)pyrimidin-4-yl)-1H-pyrazol-1-yl)propan-2-ol]	< 50
CC(C)(O)Cn1cc(-c2nc(NC3CCN(S(=O)(=O)CCCCN4CCCCC4)CC3)ncc2C#N)cn1 [Example 218, 4-(1-(2-Hydroxy-2-methylpropyl)-1H-pyrazol-4-yl)-2-((1-((4-(piperidin-1-yl)butyl)sulfonyl)piperidin-4-yl)amino)pyrimidine-5-carbonitrile]	< 50
CCN(CC)C1CCC(S(=O)(=O)N2CCC(Nc3ncc(C(F)(F)F)c(-c4cnn(CC(C)(C)O)c4)n3)CC2)CC1 (single isomer, unassigned) [89 (peak 1), 1-(4-(2-((1-((4-(Diethylamino)cyclohexyl)sulfonyl)piperidin-4-yl)amino)-5-(trifluoromethyl)pyrimidin-4-yl)-1H-pyrazol-1-yl)-2-methylpropan-2-ol]	< 50
Cc1nc(CN2CCN(C(C)C)CC2)ccc1-n1cc(-c2nc(NC3CCN(S(=O)(=O)c4cn(C)cn4)CC3)ncc2C(F)(F)F)cn1 [Example 254, 4-(1-(6-((4-Isopropylpiperazin-1-yl)methyl)-2-methylpyridin-3-yl)-1H-pyrazol-4-yl)-N-(1-((1-methyl-1H-imidazol-4-yl)sulfonyl)piperidin-4-yl)-5-(trifluoromethyl)pyrimidin-2-amine]	< 50
Cc1nc(CNC(C)C)ccc1-n1cc(-c2nc(N[C@H]3CCN(S(=O)(=O)c4cn(C)cn4)C[C@H]3C)ncc2C#N)cn1 [Example 278, 4-(1-(6-((Isopropylamino)methyl)-2-methylpyridin-3-yl)-1H-pyrazol-4-yl)-2-(((3R,4S)-3-methyl-1-((1-methyl-1H-imidazol-4-yl)sulfonyl)piperidin-4-yl)amino)pyrimidine-5-carbonitrile]	< 50
CS(=O)(=O)N1CCC(Nc2ncc(C#N)c(-c3cnn(-c4ccc(CNCCN5CCS(=O)(=O)CC5)cc4Cl)c3)n2)CC1 [Example 290, 4-(1-(2-Chloro-4-(((2-(1,1-dioxidothiomorpholino)ethyl)amino)methyl)phenyl)-1H-pyrazol-4-yl)-2-((1-(methylsulfonyl)piperidin-4-yl)amino)pyrimidine-5-carbonitrile]	< 50
CS(=O)(=O)N1CCCC(Nc2ncc(C(F)(F)F)c(-c3cnn(C4CCOCC4)c3)n2)C1 (racemic) [Example 19, (±)-N-(1-(Methylsulfonyl)piperidin-3-yl)-4-(1-(tetrahydro-2H-pyran-4-yl)-1H-pyrazol-4-yl)-5-(trifluoromethyl)pyrimidin-2-amine]	500 to 1000
Cn1cnc(S(=O)(=O)N2CCC(Nc3ncc(C(F)(F)F)c(-c4cnn(CC(F)(F)F)c4)n3)CC2)c1 [Example 25, N-(1-((1-Methyl-1H-imidazol-4-yl)sulfonyl)piperidin-4-yl)-4-(1-(2,2,2-trifluoroethyl)-1H-pyrazol-4-yl)-5-(trifluoromethyl)pyrimidin-2-amine]	< 50
N#Cc1cnc(N[C@H]2CCN(S(=O)(=O)C3CC3)C[C@H]2F)nc1-c1cnn(-c2ccc(CN[C@H]3C[C@@H](C#N)C3)cc2Cl)c1 [Example 154, 4-(1-(2-Chloro-4-((((1s,3s)-3-cyanocyclobutyl)amino)methyl)phenyl)-1H-pyrazol-4-yl)-2-(((3R,4S)-1-(cyclopropylsulfonyl)-3-fluoropiperidin-4-yl)amino)pyrimidine-5-carbonitrile]	< 50
CCNCc1ccc(-n2cc(-c3nc(NC4CCN(S(=O)(=O)c5cn(C)cn5)CC4)ncc3Cl)cn2)c(C)n1 [Example 267, 5-Chloro-4-(1-(6-((ethylamino)methyl)-2-methylpyridin-3-yl)-1H-pyrazol-4-yl)-N-(1-((1-methyl-1H-imidazol-4-yl)sulfonyl)piperidin-4-yl)pyrimidin-2-amine]	< 50
CCS(=O)(=O)N1CCC(Nc2ncc(C#N)c(-c3cnn(-c4ccc(CN[C@H]5CC[C@@](C)(O)CC5)cc4Cl)c3)n2)CC1 [Example 175, 4-(1-(2-Chloro-4-((((1s,4s)-4-hydroxy-4-methylcyclohexyl)amino)methyl)phenyl)-1H-pyrazol-4-yl)-2-((1-(ethylsulfonyl)piperidin-4-yl)amino)pyrimidine-5-carbonitrile]	< 50
CC(C)(O)Cn1cc(-c2nc(NC3CCN(S(=O)(=O)CCCN4CCC(O)CC4)CC3)ncc2C(F)(F)F)cn1 [Example 75, 1-(3-((4-((4-(1-(2-Hydroxy-2-methylpropyl)-1H-pyrazol-4-yl)-5-(trifluoromethyl)pyrimidin-2-yl)amino)piperidin-1-yl)sulfonyl)propyl)piperidin-4-ol]	< 50
Cc1cc(CN2CCN(C)CC2)ccc1-n1cc(-c2nc(N[C@H]3CCN(S(C)(=O)=O)C[C@H]3F)ncc2C(F)(F)F)cn1 [Example 101, N-((3R,4S)-3-Fluoro-1-(methylsulfonyl)piperidin-4-yl)-4-(1-(2-methyl-4-((4-methylpiperazin-1-yl)methyl)phenyl)-1H-pyrazol-4-yl)-5-(trifluoromethyl)pyrimidin-2-amine]	< 50
